System: AMPA receptor
Assay: rat cortical slice, responses to AMPA (apparent equilibrium constant from righthand shift in concentration-response curve)
Type: cell-based
Conditions: righthand shift in the AMPA concentration-response curve
Protocol: The compounds useful in this invention potently and selectively block responses to NMDA and/or AMPA in a brain slice from rat cortex, and inhibit the binding of agonists and antagonists to the strychnine-insensitive site present on the NMDA receptor and/or AMPA binding to rat forebrain membranes.
The effects of compounds of the invention on responses to NMDA and AMPA were assessed using the rat cortical slice as described by Wong et al., Proc. Natl. Acad. Sci. USA, 1986, 83, 7104. The apparent equilibrium constant (Kb) was calculated from the righthand shift in the NMDA or AMPA concentration-response curves produced by the compound under test.

SMILES: O=C1Nc2cc(Cl)ccc2CC1[N+](=O)[O-] (stereo not shown) [Example 2, 7-Chloro-3-nitro-3,4-dihydroquinolin-2-one]
- Kb: < 150 µM

From patent US5376748A, “Nitroquinolone derivatives” (Merck Sharp & Dohme Limited, priority 1992, dated 1994)
